The values that follow are results of earlier work, collected in patent US20040006111A1, “Transmucosal delivery of proton pump inhibitors” (priority 2002, published 2004).

Where [1] appears, read: omeprazole buccal adhesive tablets (sodium alginate, HPMC, magnesium oxide, croscarmellose sodium), absorption through the buccal mucosa.

Turning to `COc1ccc2[nH]c([S+]([O-])Cc3ncc(C)c(OC)c3C)nc2c1` (stereo not drawn) [omeprazole], the bioavailability entry (omeprazole buccal adhesive tablet formulation of Choi et al.) was “low”. Moreover, under setting [1], the peak plasma concentration was 370 ng/mL and the “time to generate peak plasma concentration” value is 45 min.
